Experimental data taken from PubChem BioAssay AID1919009 (Molecular Pharmacology Branch, DTP, NCI, 2023).

System: K24384-001-R-PDC complex spheroid growth
Test: Anticancer human tumor K24384-001-R-PDC patient-derived pancreatic adenocarcinoma cell line growth inhibition [AhR]
Details: for IC50: curve of first compound; for viability, T/C: stronger effect = lower value
Outline: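 Spheroids combined tumor cells with HUVEC endothelial cells and human MSCs as stroma. AhR antagonists were paired with standard or investigational drugs, each dosed in half-log steps down from near clinical Cmax, or from 10 microM where Cmax was unknown.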

[1] = second compound 0.1 µM, first compound 0.0316 µM
[2] = second compound 0.1 µM, first compound 0.1 µM
[3] = second compound 0.1 µM, first compound 0.316 µM
[4] = second compound 0.1 µM, first compound 1 µM
[5] = second compound 0.1 µM, first compound 3.16 µM
[6] = second compound 0.1 µM, first compound 10 µM
[7] = second compound 0.316 µM, first compound 0.0316 µM
[8] = second compound 0.316 µM, first compound 0.1 µM
[9] = second compound 0.316 µM, first compound 0.316 µM
[10] = second compound 0.316 µM, first compound 1 µM
[11] = second compound 0.316 µM, first compound 3.16 µM
[12] = second compound 0.316 µM, first compound 10 µM
[13] = second compound 1 µM, first compound 0.0316 µM
[14] = second compound 1 µM, first compound 0.1 µM
[15] = second compound 1 µM, first compound 0.316 µM
[16] = second compound 1 µM, first compound 1 µM
[17] = second compound 1 µM, first compound 3.16 µM
[18] = second compound 1 µM, first compound 10 µM
[19] = second compound 3.16 µM, first compound 0.0316 µM
[20] = second compound 3.16 µM, first compound 0.1 µM
[21] = second compound 3.16 µM, first compound 0.316 µM
[22] = second compound 3.16 µM, first compound 1 µM
[23] = second compound 3.16 µM, first compound 3.16 µM
[24] = second compound 3.16 µM, first compound 10 µM
[25] = second compound 10 µM, first compound 0.0316 µM
[26] = second compound 10 µM, first compound 0.1 µM
[27] = second compound 10 µM, first compound 0.316 µM
[28] = second compound 10 µM, first compound 1 µM
[29] = second compound 10 µM, first compound 3.16 µM
[30] = second compound 10 µM, first compound 10 µM
[31] = second compound 0.1 µM, first compound 0.00316 µM
[32] = second compound 0.1 µM, first compound 0.01 µM
[33] = second compound 0.316 µM, first compound 0.00316 µM
[34] = second compound 0.316 µM, first compound 0.01 µM
[35] = second compound 1 µM, first compound 0.00316 µM
[36] = second compound 1 µM, first compound 0.01 µM
[37] = second compound 3.16 µM, first compound 0.00316 µM
[38] = second compound 3.16 µM, first compound 0.01 µM
[39] = second compound 10 µM, first compound 0.00316 µM
[40] = second compound 10 µM, first compound 0.01 µM
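Wherever viability, T/C is given: percent of DMSO vehicle-treated spheroid viability set as 100%.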

Structure (SMILES)	IC50 (second compound 0.1 µM)	IC50 (second compound 0.316 µM)	IC50 (second compound 1 µM)	IC50 (second compound 3.16 µM)	IC50 (second compound 10 µM)	viability, T/C [1]	viability, T/C [2]	viability, T/C [3]	viability, T/C [4]	viability, T/C [7]	viability, T/C [8]	viability, T/C [9]	viability, T/C [10]	viability, T/C [13]	viability, T/C [14]	viability, T/C [15]	viability, T/C [16]	viability, T/C [19]	viability, T/C [20]	viability, T/C [21]	also measured
CC(C)c1c(-c2ccccc2)nc2c(C#N)c[nH]n2c1=O + Cc1ccccc1N=Nc1ccc(NC(=O)c2ccnn2C)c(C)c1	> 10000 nM	> 10000 nM	> 10000 nM	> 10000 nM	> 10000 nM	114%	121%	123%	108%	112%	124%	121%	128%	117%	109%	113%	103%	98.2%	109%	124%	viability, T/C [5]: 88.8%; viability, T/C [6]: 86.2%; viability, T/C [11]: 104%; viability, T/C [12]: 89.7%; viability, T/C [17]: 105%; viability, T/C [18]: 109%; viability, T/C [22]: 114%; viability, T/C [23]: 90.8%; viability, T/C [24]: 122%; viability, T/C [25]: 132%; viability, T/C [26]: 141%; viability, T/C [27]: 114%; viability, T/C [28]: 119%; viability, T/C [29]: 126%; viability, T/C [30]: 119%
CC1COCCN1c1cc(-c2ccnn2C)c2ccnc(-c3ccn[nH]3)c2n1 (stereo not given) + Cc1ccccc1N=Nc1ccc(NC(=O)c2ccnn2C)c(C)c1	103 nM	105 nM	94.8 nM	99.1 nM	168 nM	82.2%	52.3%	29.6%	28.2%	80.5%	54.2%	32.5%	26.7%	102%	47.5%	29.1%	28.6%	82.1%	48.7%	33.4%	viability, T/C [31]: 101%; viability, T/C [32]: 107%; viability, T/C [33]: 114%; viability, T/C [34]: 120%; viability, T/C [35]: 103%; viability, T/C [36]: 99.5%; viability, T/C [37]: 101%; viability, T/C [38]: 92.1%; viability, T/C [22]: 28.5%; viability, T/C [39]: 129%; viability, T/C [40]: 128%; viability, T/C [25]: 108%; viability, T/C [26]: 57.1%; viability, T/C [27]: 39.7%; viability, T/C [28]: 42.4%
COc1ccc([C@@H](O)c2cc(-c3ncnc4cc(N5CCOCC5)ccc34)c(F)cc2Cl)nn1 + Cc1ccccc1N=Nc1ccc(NC(=O)c2ccnn2C)c(C)c1	5910 nM	4850 nM	3610 nM	2540 nM	3680 nM	99.7%	99%	82.2%	66.7%	99.3%	90.5%	80.4%	82%	96.1%	95.7%	86.1%	70.8%	99.9%	96.6%	81%	viability, T/C [5]: 62.5%; viability, T/C [6]: 42.1%; viability, T/C [11]: 53.8%; viability, T/C [12]: 37.2%; viability, T/C [17]: 51.9%; viability, T/C [18]: 37.8%; viability, T/C [22]: 64.2%; viability, T/C [23]: 47.2%; viability, T/C [24]: 34.9%; viability, T/C [25]: 97%; viability, T/C [26]: 103%; viability, T/C [27]: 82.5%; viability, T/C [28]: 78.7%; viability, T/C [29]: 50.9%; viability, T/C [30]: 32.7%
COc1cccc2c1C(=O)c1c(O)c3c(c(O)c1C2=O)CC(O)(C(=O)CO)CC3OC1CC(N)C(O)C(C)O1 (stereo not given) + Cc1cncc(-c2nc(NCCc3c[nH]c4ccccc34)c3ncn(C(C)C)c3n2)c1	43.2 nM	< 31.6 nM	42.2 nM	< 31.6 nM	< 31.6 nM	56.2%	32.3%	22%	6.38%	43.8%	39.4%	18.6%	4.66%	53.4%	39.8%	14.4%	4.5%	41.2%	35.8%	10.2%	viability, T/C [5]: 2.85%; viability, T/C [6]: 7.5%; viability, T/C [11]: 4.69%; viability, T/C [12]: 7.35%; viability, T/C [17]: 2.69%; viability, T/C [18]: 5.17%; viability, T/C [22]: 2.01%; viability, T/C [23]: 3.75%; viability, T/C [24]: 5.63%; viability, T/C [25]: 6.65%; viability, T/C [26]: 10.3%; viability, T/C [27]: 4.38%; viability, T/C [28]: 1.31%; viability, T/C [29]: 1.89%; viability, T/C [30]: 2.29%
Nc1ncn(C2CC(O)C(CO)O2)c(=O)n1 (stereo not given) + Cc1cncc(-c2nc(NCCc3c[nH]c4ccccc34)c3ncn(C(C)C)c3n2)c1	> 1000 nM	> 1000 nM	> 1000 nM	> 1000 nM	< 3.16 nM	92.8%	77.5%	62.8%	51.1%	95.8%	77.7%	72.2%	63.6%	103%	82.5%	99.4%	66%	87.8%	66.8%	67.9%	viability, T/C [31]: 83.2%; viability, T/C [32]: 97.6%; viability, T/C [33]: 91.1%; viability, T/C [34]: 101%; viability, T/C [35]: 80.2%; viability, T/C [36]: 101%; viability, T/C [37]: 83.1%; viability, T/C [38]: 100%; viability, T/C [22]: 70.2%; viability, T/C [39]: 13.3%; viability, T/C [40]: 14.3%; viability, T/C [25]: 14.8%; viability, T/C [26]: 10.8%; viability, T/C [27]: 8.89%; viability, T/C [28]: 11.4%
